What is called Ki is a dissociation constant, usually derived from enzyme kinetics or from competition with a known ligand. A lower Ki goes with tighter binding.

The structures appear in SMILES notation.

The target in this assay is ROCK2 (UniProt O75116). Kind of assay: Inhibition of ROCK2 Kinase Activity.
Chain of ROCK2 (O75116 whole entry, looked up): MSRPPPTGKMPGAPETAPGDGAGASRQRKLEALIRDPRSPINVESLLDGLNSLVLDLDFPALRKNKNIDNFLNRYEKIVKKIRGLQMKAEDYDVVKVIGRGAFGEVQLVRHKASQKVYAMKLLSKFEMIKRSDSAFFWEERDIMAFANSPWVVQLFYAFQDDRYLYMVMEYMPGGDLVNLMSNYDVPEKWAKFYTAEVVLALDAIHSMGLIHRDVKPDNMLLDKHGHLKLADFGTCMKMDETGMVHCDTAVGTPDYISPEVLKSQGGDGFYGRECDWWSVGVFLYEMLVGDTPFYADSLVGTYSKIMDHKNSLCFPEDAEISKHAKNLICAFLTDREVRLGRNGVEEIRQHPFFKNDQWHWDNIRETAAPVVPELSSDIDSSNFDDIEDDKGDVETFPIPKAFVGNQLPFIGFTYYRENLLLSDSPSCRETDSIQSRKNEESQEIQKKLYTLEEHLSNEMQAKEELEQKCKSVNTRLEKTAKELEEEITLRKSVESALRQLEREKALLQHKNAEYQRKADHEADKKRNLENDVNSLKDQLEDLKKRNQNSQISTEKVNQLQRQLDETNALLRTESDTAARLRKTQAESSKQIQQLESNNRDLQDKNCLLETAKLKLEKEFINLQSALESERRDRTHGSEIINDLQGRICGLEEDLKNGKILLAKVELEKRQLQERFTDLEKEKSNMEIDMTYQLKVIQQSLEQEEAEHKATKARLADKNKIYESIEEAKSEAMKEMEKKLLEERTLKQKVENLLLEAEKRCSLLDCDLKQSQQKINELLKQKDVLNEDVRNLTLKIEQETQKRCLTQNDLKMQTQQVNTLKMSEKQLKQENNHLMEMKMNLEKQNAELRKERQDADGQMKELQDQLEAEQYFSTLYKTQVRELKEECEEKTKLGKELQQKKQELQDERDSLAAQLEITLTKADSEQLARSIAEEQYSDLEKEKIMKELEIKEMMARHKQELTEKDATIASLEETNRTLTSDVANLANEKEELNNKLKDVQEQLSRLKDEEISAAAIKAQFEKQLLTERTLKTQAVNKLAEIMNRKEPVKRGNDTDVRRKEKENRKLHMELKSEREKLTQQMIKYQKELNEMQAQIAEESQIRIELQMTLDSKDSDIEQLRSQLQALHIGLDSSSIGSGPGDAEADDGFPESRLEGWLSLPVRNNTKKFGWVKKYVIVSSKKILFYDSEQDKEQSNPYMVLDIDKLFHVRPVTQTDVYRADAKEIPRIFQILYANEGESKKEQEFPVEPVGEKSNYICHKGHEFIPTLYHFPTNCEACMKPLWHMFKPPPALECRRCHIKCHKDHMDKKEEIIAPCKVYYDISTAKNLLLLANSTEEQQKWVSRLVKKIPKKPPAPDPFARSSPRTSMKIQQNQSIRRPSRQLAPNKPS

`CC(C)(N)c1ccc(-c2ccc3[nH]ncc3c2-c2ccccn2)cc1` had an inhibitory constant (Ki) of 241 nM.
The result for `COc1c(-c2ccc(C(C)(C)N)cn2)ccc2[nH]ncc12` reads 27 nM; that for `CC(C)(N)c1ccc(-c2ccc3[nH]ncc3c2CCO)nc1`, 234 nM.
Then `CNc1c(-c2ccc(C(C)(C)N)cc2)ccc2[nH]ncc12`, with 15 nM; and `CCN(CC)c1c(-c2ccc(C(C)(C)N)cc2)ccc2[nH]ncc12`, with 614 nM; and `CC(C)Oc1c(-c2ccc(C(C)(C)N)cn2)ccc2[nH]ncc12`, with 84 nM.
The result for `CC(C)(N)c1ccc(-c2ccc3[nH]ncc3c2OC(F)F)nc1` reads 6.9 nM; that for `CN(C)c1c(-c2ccc(C3(N)CCCC3)cc2)ccc2[nH]ncc12`, 14 nM.
`CC(C)(N)c1ccc(-c2ccc3[nH]ncc3c2CCO)cc1`: the Ki came out at 47 nM.
The result for `COc1c(-c2ccc(C3(N)CCCC3)cn2)ccc2[nH]ncc12` reads 27 nM.
Then `CC(C)(N)c1ccc(-c2ccc3[nH]nc(N)c3c2)cc1`, with 144 nM.
Then `CCCOc1c(-c2ccc(C(C)(C)N)cc2)ccc2[nH]ncc12`, with 14 nM.
The compound `C=CCOc1c(-c2ccc(C(C)(C)N)cc2)ccc2[nH]ncc12` came in with a Ki of 23 nM.
In turn, `CC(O)c1c(-c2ccc(C(C)(C)N)cc2)ccc2[nH]ncc12` (stereo not drawn) yielded an inhibition constant Ki of 294 nM.
The result for `CC(C)(N)c1ccc(-c2ccc3[nH]ncc3c2-c2cc[nH]n2)cc1` reads 11 nM.
Compound `CCC(N)(CC)c1ccc(-c2ccc3[nH]ncc3c2OC2CC2)nc1` came in with a Ki of 34 nM.
Then `NCc1ccc(-c2ccc3[nH]ncc3c2N)cc1`, with 61 nM; and `CC(C)(N)c1ccc(-c2ccc3[nH]nc(C#N)c3c2)cc1`, with 103 nM; and `CC(C)(N)c1ccc(-c2ccc3[nH]ncc3c2-c2cccnc2)cc1`, with 126 nM.
For the compound `CC(C)(N)c1ccc(-c2ccc3[nH]nc(CO)c3c2)cc1`, the inhibition constant Ki came to 142 nM.
In turn, `CC(N)c1ccc(-c2ccc3[nH]ncc3c2N(C)C)cc1` (stereo not drawn) returned an inhibitory constant (Ki) of 27 nM.
`CC(C)(N)c1ccc(-c2ccc3[nH]ncc3c2OCC(F)(F)F)cc1` came in with a Ki of 31 nM.
The result for `CC(C)(N)c1ccc(-c2ccc3[nH]ncc3c2-c2ccncc2)cc1` reads 45 nM.
Compound `CCCCOc1c(-c2ccc(C(C)(C)N)cc2)ccc2[nH]ncc12` showed a Ki of 13 nM.
Turning to `CC(C)(N)c1ccc(-c2ccc3[nH]ncc3c2[N+](=O)[O-])nc1`, the Ki came out at 199 nM.
Then `CC(C)(N)c1ccc(-c2ccc3[nH]ncc3c2OC(F)F)cc1`, with 3.6 nM; and `CC(C)(N)c1ccc(-c2ccc3[nH]ncc3c2[N+](=O)[O-])cc1`, with 28 nM; and `CC(C)(N)c1ccc(-c2ccc3[nH]ncc3c2OCCF)cc1`, with 26 nM.
The result for `CC(C)(N)c1ccc(-c2ccc3[nH]ncc3c2-c2cn[nH]c2)cc1` reads 4.4 nM.
Then `CN(C)c1c(-c2ccc(CN)cc2)ccc2[nH]ncc12`, with 29 nM; and `CC(C)(N)c1ccc(-c2ccc3[nH]ncc3c2-c2cnco2)cc1`, with 2.6 nM.
As for `CC(C)(N)c1ccc(-c2ccc3[nH]ncc3c2-c2cn[nH]c2)nc1`, the inhibitory constant (Ki) turned out to be 56 nM.
In turn, `CC(C)(N)c1ccc(-c2ccc3[nH]ncc3c2O)cc1` showed an inhibition constant Ki of 29 nM. This Ki lies about 1.9-fold lower than the previous one.
The result for `CC(C)(N)c1ccc(-c2ccc3[nH]ncc3c2C2CC2)nc1` reads 2.7 nM; that for `CC(C)(N)c1ccc(-c2ccc3[nH]ncc3c2)cc1`, 19 nM.
The result for `CC(C)(N)c1ccc(-c2ccc3[nH]ncc3c2OC2CC2)nc1` reads 28 nM; that for `CC(C)(N)c1ccc(-c2ccc3[nH]nc(C(N)=O)c3c2)cc1`, 134 nM; that for `CC(C)(N)c1ccc(-c2ccc3[nH]ncc3c2)nc1`, 20 nM.
Then `CC(C)Oc1c(-c2ccc(C(C)(C)N)cc2)ccc2[nH]ncc12`, with 33 nM; and `CC(C)(N)c1ccc(-c2ccc3[nH]ncc3c2OCC2CC2)nc1`, with 146 nM.
In turn, `CCC(N)(CC)c1ccc(-c2ccc3[nH]ncc3c2N)cc1` yielded a Ki of 38 nM.
The result for `CC(C)(N)c1ccc(-c2ccc3[nH]nc(C=NO)c3c2)cc1` reads 7.5 nM.
Then `CC(C)(N)c1ccc(-c2ccc3[nH]ncc3c2NCc2ccccc2)cc1`, with 260 nM; and `CN(C)c1c(-c2ccc(C(C)(C)N)cc2)ccc2[nH]ncc12`, with 16 nM; and `CC(C)(N)c1ccc(-c2ccc3[nH]ncc3c2-c2ccno2)cc1`, with 6.4 nM.
The compound `CCc1c(-c2ccc(C(C)(C)N)cn2)ccc2[nH]ncc12` gave an inhibition constant Ki of 15 nM.
The result for `CC(C)(N)c1ccc(-c2ccc3[nH]ncc3c2O)nc1` reads 55 nM; that for `NCc1ccc(-c2ccc3[nH]ncc3c2[N+](=O)[O-])cc1`, 55 nM.
Then `CCC(N)(CC)c1ccc(-c2ccc3[nH]ncc3c2OC)nc1`, with 38 nM; and `Nc1c(-c2ccc(C3(N)CCCC3)cc2)ccc2[nH]ncc12`, with 26 nM.
The result for `CC(C)(N)c1ccc(-c2ccc3[nH]ncc3c2-n2cccc2)cc1` reads 12 nM; that for `CC(C)(N)c1ccc(-c2ccc3[nH]ncc3c2CO)cc1`, 139 nM; that for `COC(=O)c1n[nH]c2ccc(-c3ccc(C(C)(C)N)cc3)cc12`, 97 nM.
Regarding `CC(C)(N)c1ccc(-c2ccc3[nH]ncc3c2N2CCCC2)cc1`, the Ki was 14 nM.
The result for `CC(C)(N)c1cnc(-c2ccc3[nH]ncc3c2)c(Cl)c1` reads 86 nM.
Then `CC(C)(N)c1ccc(-c2ccc3[nH]ncc3c2N)cc1`, with 44 nM.
The result for `CC(C)(N)c1ccc(-c2ccc3[nH]ncc3c2C#N)cc1` reads 35 nM.
In turn, `CCCOc1c(-c2ccc(C(C)(C)N)cn2)ccc2[nH]ncc12` registered a Ki of 39 nM.
Then `CCOc1c(-c2ccc(C(C)(C)N)cc2)ccc2[nH]ncc12`, with 17 nM; and `CCOc1c(-c2ccc(C(N)(CC)CC)cn2)ccc2[nH]ncc12`, with 35 nM.
The result for `COc1c(-c2ccc(C(C)(C)N)cc2)ccc2[nH]ncc12` reads 13 nM.
Then `C=C(C)c1n[nH]c2ccc(-c3ccc(C(C)(C)N)cc3)cc12`, with 56 nM; and `CCC(N)(CC)c1ccc(-c2ccc3[nH]ncc3c2OC(F)F)cc1`, with 13 nM; and `C=Cc1c(-c2ccc(C(C)(C)N)cn2)ccc2[nH]ncc12`, with 17 nM.
In turn, `CC(C)(N)c1ccc(-c2ccc3[nH]ncc3c2N2CCCCC2)cc1` returned a Ki of 14 nM.
Then `CC(C)(N)c1ccc(-c2ccc3[nH]ncc3c2N2CCOCC2)cc1`, with 211 nM.
Then `CCC(N)(CC)c1ccc(-c2ccc3[nH]ncc3c2N(C)C)cc1`, with 23 nM; and `CCOc1c(-c2ccc(C(C)(C)N)cn2)ccc2[nH]ncc12`, with 45 nM.

Source of the values: the Kinase Knowledgebase extract (Sharma et al. 2016).
